From patent US20120129833A1, “CYCLIC KETOENOLS FOR THERAPY” (BAYER PHARMA AKTIENGESELLSCHAFT, priority 2010, published 2012) come the findings set out here.

In experiment [1] the target is T1, recombinant human ACC1 (acetyl-CoA carboxylase 1) (Homo sapiens, UniProt Q13085).
T1 construct: NM_198834, amino acids 39—end; FLAG (C); made in house; host or cells: baculovirus-transfected insect cells (Hi5)
Description: Human ACC1 enzyme assay (HTRF ADP detection).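 Also: ADP by-product quantified by competitive HTRF immunoassay with europium cryptate anti-ADP antibody and d2-labelled ADP, read after 1 h binding at 22 °C, enzyme near 2.5 ng/µl.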 The class given is biochemical. To be noted: 50 μM ATP, 20 μM acetyl-CoA, 15 min pre-incubation, 20 min at 22° C.; read-out: ACC 1 IC50.
Description: The basic principle of the assay is the measurement of adenosine diphosphate (ADP), which is formed as a by-product, by means of an HTRF®-based competitive immunoassay (HTRF=Homogeneous Time Resolved Fluorescence).
The amount of complex of d2-labelled ADP and europium cryptate-labelled anti-ADP antibody was then determined by measuring the resonance energy transfer of europium cryptate to d2.

For experiment [2], the target named is T2, ACC2 (acetyl-CoA carboxylase 2) (Homo sapiens, UniProt O00763).
T2 construct: catalogue no; 50201, amino acids 39—end, expressed in baculovirus-transfected Sf9 insect cells; His (C); purchased BPS Bioscience (San Diego, Calif.) 50201; host or cells: baculovirus-transfected Sf9 insect cells
Description: Human ACC2 enzyme assay (HTRF ADP detection). The class given is biochemical. To be noted: 20 μM acetyl-CoA, 15 min pre-incubation, 20 min at 22° C.; read-out: ACC 2 IC50. (TR-FRET usually uses a lanthanide donor and a delayed reading to cut background.)

Bounds are passed on as bounds.

T2 sequence (O00763 39-2458 limits assumed): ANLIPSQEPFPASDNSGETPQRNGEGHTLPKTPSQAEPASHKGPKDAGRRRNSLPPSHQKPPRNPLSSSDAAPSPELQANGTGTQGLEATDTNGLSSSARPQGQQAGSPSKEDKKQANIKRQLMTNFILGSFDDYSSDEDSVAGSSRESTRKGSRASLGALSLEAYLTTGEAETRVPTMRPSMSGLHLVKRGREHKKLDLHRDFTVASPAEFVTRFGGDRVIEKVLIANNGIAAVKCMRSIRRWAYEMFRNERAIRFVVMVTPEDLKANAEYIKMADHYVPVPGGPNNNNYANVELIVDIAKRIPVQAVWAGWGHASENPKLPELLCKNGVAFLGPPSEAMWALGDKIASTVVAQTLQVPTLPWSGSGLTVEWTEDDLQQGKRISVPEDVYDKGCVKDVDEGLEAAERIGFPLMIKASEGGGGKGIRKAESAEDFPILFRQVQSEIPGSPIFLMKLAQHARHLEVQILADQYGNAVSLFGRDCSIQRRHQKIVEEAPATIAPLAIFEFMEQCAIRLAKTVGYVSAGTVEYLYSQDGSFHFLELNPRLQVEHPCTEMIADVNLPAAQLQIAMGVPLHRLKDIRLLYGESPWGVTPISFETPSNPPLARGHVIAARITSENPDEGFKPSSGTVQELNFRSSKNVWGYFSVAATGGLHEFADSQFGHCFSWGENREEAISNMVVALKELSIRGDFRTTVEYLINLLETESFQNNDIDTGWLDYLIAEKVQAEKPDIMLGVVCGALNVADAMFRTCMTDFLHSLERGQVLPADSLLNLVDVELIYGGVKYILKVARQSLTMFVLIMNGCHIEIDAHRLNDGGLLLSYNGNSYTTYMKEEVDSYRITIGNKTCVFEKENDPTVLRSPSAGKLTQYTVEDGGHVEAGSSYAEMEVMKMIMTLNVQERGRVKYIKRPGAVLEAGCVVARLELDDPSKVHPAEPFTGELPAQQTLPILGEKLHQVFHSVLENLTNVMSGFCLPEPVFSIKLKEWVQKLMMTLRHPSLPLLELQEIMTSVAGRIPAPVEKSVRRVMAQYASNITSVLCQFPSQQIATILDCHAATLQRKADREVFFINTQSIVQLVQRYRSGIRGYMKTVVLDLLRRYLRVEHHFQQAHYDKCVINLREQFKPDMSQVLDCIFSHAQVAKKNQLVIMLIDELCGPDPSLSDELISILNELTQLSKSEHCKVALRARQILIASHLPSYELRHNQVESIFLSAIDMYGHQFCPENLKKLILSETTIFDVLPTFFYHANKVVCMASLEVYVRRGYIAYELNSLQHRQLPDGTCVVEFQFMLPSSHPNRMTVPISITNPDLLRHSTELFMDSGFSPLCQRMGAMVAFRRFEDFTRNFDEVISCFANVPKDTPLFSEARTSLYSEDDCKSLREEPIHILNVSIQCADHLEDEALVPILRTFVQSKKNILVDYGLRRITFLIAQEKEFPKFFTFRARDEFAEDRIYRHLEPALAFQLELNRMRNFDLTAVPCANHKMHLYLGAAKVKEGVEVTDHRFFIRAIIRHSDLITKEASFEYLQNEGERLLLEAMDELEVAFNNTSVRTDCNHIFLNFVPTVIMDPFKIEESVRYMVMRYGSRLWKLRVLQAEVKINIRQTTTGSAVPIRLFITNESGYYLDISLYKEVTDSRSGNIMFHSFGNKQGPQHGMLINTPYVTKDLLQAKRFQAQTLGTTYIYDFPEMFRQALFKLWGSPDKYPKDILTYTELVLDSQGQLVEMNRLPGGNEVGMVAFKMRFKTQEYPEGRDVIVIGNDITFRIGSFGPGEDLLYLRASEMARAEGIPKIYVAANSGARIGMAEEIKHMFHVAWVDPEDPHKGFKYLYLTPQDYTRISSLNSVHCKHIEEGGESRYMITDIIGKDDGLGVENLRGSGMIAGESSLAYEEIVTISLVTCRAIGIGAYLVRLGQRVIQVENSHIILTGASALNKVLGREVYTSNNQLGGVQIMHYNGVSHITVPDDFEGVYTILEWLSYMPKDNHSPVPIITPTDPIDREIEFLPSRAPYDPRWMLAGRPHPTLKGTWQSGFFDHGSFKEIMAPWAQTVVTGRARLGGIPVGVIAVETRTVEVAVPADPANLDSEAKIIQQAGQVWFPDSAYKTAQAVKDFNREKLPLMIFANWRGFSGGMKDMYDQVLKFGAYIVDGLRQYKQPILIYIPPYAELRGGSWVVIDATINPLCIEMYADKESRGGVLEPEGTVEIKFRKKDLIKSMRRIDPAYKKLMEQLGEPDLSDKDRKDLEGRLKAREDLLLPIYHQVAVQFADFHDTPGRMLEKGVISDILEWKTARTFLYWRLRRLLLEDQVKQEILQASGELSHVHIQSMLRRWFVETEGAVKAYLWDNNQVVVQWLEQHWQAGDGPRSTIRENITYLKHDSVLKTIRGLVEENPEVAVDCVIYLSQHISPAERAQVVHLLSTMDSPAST

The IC50 is the midpoint of a concentration-inhibition curve. Take `Cc1ccc(-c2ccc(Cl)cc2)cc1C1=C(O)[C@@]2(CC[C@H](OCC(C)C)C2)NC1=O` (relative stereo) [Example 1-49, rel-(5R,7R)-3-(4′-chloro-4-methylbiphenyl-3-yl)-4-hydroxy-7-(2-methylpropoxy)-1-azaspiro[4.4]non-3-en-2-one]: the half-maximal inhibitory concentration (IC50) in experiment [1] stood at 240 nM; in experiment [2], 9900 nM.
The matching figures for `CCOCCO[C@@H]1CC[C@@]2(C1)NC(=O)C(c1cc(-c3ccc(Cl)cc3)ccc1C)=C2O` (relative stereo) [Example 1-50, rel-(5R,7S)-3-(4′-chloro-4-methylbiphenyl-3-yl)-7-(2-ethoxyethoxy)-4-hydroxy-1-azaspiro[4.4]non-3-en-2-one]: 472 nM and 6270 nM.
Consider `COCCO[C@@H]1CCC[C@]2(C1)NC(=O)C(c1cc(-c3ccc(Cl)cc3)ccc1Cl)=C2O` (relative stereo) [Example 1-74, rel-(5R,7R)-3-(4,4′-dichlorobiphenyl-3-yl)-4-hydroxy-7-(2-methoxyethoxy)-1-azaspiro[4.5]dec-3-en-2-one], for which the half-inhibitory concentration (IC50) in experiment [1] came to 656 nM; in experiment [2] it was 16400 nM.
The matching figures for `Cc1ccc(-c2ccc(Cl)cc2)c(C)c1C1=C(O)C2(CCOCC2)NC1=O` [Example 1-1, 3-(4′-chloro-2,4-dimethylbiphenyl-3-yl)-4-hydroxy-8-oxa-1-azaspiro[4.5]dec-3-en-2-one]: 460 nM and 8800 nM.
The corresponding values for `CO[C@H]1CC[C@]2(CC1)NC(=O)C(c1cc(-c3ccc(Cl)cc3)ccc1C)=C2O` [Example 1-2, (5s,8s)-3-(4′-chloro-4-methylbiphenyl-3-yl)-4-hydroxy-8-methoxy-1-azaspiro[4.5]dec-3-en-2-one] are […] and 370 nM.
The matching figures for `Cc1ccc(-c2ccc(Cl)cc2)cc1C1=C(O)C2(CCOC(C)C2)NC1=O` (stereo not drawn) [Example 1-3, 3-(4′-chloro-4-methylbiphenyl-3-yl)-4-hydroxy-7-methyl-8-oxa-1-azaspiro[4.5]dec-3-en-2-one]: 450 nM and 5400 nM.
Regarding `Cc1ccc(-c2ccc(Cl)cc2)c(C)c1C1=C(O)C2(CCC(C)CC2)NC1=O` (stereo not drawn) [Example 1-4, 3-(4′-chloro-2,4-dimethylbiphenyl-3-yl)-4-hydroxy-8-methyl-1-azaspiro[4.5]dec-3-en-2-one], the IC50 came to 460 nM in experiment [1] and 330 nM in experiment [2].
Turning to `Cc1ccc(-c2ccc(Cl)cc2)cc1C1=C(O)C2(CCCOC2)NC1=O` (stereo not drawn) [Example 1-5, 3-(4′-chloro-4-methylbiphenyl-3-yl)-4-hydroxy-7-oxa-1-azaspiro[4.5]dec-3-en-2-one], the half-inhibitory concentration (IC50) amounted to 287 nM in experiment [1] and 8240 nM in experiment [2].
Turning to `Cc1ccc(-c2ccc(Cl)cc2)cc1C1=C(O)C2(CCOCC2)NC1=O` [Example 1-6, 3-(4′-chloro-4-methylbiphenyl-3-yl)-4-hydroxy-8-oxa-1-azaspiro[4.5]dec-3-en-2-one], the IC50 in experiment [1] turned out to be 300 nM; in experiment [2] it was 5200 nM.
The corresponding values for `COC1CCC2(CC1)NC(=O)C(c1cc(-c3ccc(Cl)cc3)c(C)cc1C)=C2O` (stereo not drawn) [Example 1-7, 3-(4′-chloro-4,6-dimethylbiphenyl-3-yl)-4-hydroxy-8-methoxy-1-azaspiro[4.5]dec-3-en-2-one] are 1700 nM and 87 nM.
For `Cc1cc(C)c(-c2ccc(Cl)cc2)cc1C1=C(O)C2(CCCOC2)NC1=O` (stereo not drawn) [Example 1-8, 3-(4′-chloro-4,6-dimethylbiphenyl-3-yl)-4-hydroxy-7-oxa-1-azaspiro[4.5]dec-3-en-2-one], the values for the IC50 in experiment [1] and in experiment [2] were 790 nM and 810 nM, respectively.
The corresponding values for `COC1CCC2(CC1)NC(=O)C(c1c(C)cc(C)c(-c3ccc(Cl)cc3)c1C)=C2O` (stereo not drawn) [Example 1-9, 3-(4′-chloro-2,4,6-trimethylbiphenyl-3-yl)-4-hydroxy-8-methoxy-1-azaspiro[4.5]dec-3-en-2-one] are 16600 nM and 626 nM.
With `Cc1ccc(-c2ccc(Cl)cc2)c(C)c1C1=C(O)C2(CCCOC2)NC1=O` (stereo not drawn) [Example 1-10, 3-(4′-chloro-2,4-dimethylbiphenyl-3-yl)-4-hydroxy-7-oxa-1-azaspiro[4.5]dec-3-en-2-one], the 50% inhibitory concentration (IC50) stood at 550 nM in experiment [1] and 6400 nM in experiment [2].
On to `COC1CCC2(CC1)NC(=O)C(c1cc(-c3ccc(Cl)cc3)ccc1Cl)=C2O` (stereo not drawn) [Example 1-11, 3-(4,4′-dichlorobiphenyl-3-yl)-4-hydroxy-8-methoxy-1-azaspiro[4.5]dec-3-en-2-one], for which the IC50 in experiment [1] turned out to be 240 nM; in experiment [2] it was 1000 nM.
The corresponding values for `Cc1ccc(-c2ccc(C(F)(F)F)cc2)cc1C1=C(O)C2(CCCCC2)NC1=O` [Example 1-12, 4-hydroxy-3-[4-methyl-4′-(trifluoromethyl)biphenyl-3-yl]-1-azaspiro[4.5]dec-3-en-2-one] are 772 nM and 18200 nM.
The matching figures for `Cc1ccc(-c2ccc(C)c(C3=C(O)C4(CCCCC4)NC3=O)c2)cc1` [Example 1-13, 3-(4,4′-dimethylbiphenyl-3-yl)-4-hydroxy-1-azaspiro[4.5]dec-3-en-2-one]: 353 nM and 18900 nM.
For the molecule `Cc1ccc(-c2ccc(C)c(C3=C(O)C4(CCCOC4)NC3=O)c2)cc1` (stereo not drawn) [Example 1-14, 3-(4,4′-dimethylbiphenyl-3-yl)-4-hydroxy-7-oxa-1-azaspiro[4.5]dec-3-en-2-one], the IC50 in experiment [1] was 990 nM; in experiment [2], above 20000 nM.
The corresponding values for `Cc1ccc(-c2ccc(C)c(C3=C(O)C4(CCOCC4)NC3=O)c2)cc1` [Example 1-15, 3-(4,4′-dimethylbiphenyl-3-yl)-4-hydroxy-8-oxa-1-azaspiro[4.5]dec-3-en-2-one] are 742 nM and above 20000 nM.
As to `Cc1ccc(-c2ccc(Cl)cc2)cc1C1=C(O)CN(C)C1=O` [Example 1-16, 3-(4′-chloro-4-methylbiphenyl-3-yl)-4-hydroxy-1-methyl-1,5-dihydro-2H-pyrrol-2-one], the half-inhibitory concentration (IC50) in experiment [1] is 329 nM; in experiment [2] it was above 20000 nM.
On to `Cc1ccc(-c2ccc(Cl)cc2)cc1C1=C(O)CN(C(C)C)C1=O` [Example 1-17, 3-(4′-chloro-4-methylbiphenyl-3-yl)-4-hydroxy-1-(propan-2-yl)-1,5-dihydro-2H-pyrrol-2-one], for which the results for the IC50 in experiment [1] and in experiment [2] were 334 nM and 4020 nM, respectively.
As to `Cc1ccc(-c2ccc(Cl)cc2)cc1C1=C(O)CN(C2CC2)C1=O` [Example 1-18, 3-(4′-chloro-4-methylbiphenyl-3-yl)-1-cyclopropyl-4-hydroxy-1,5-dihydro-2H-pyrrol-2-one], the half-inhibitory concentration (IC50) came to 797 nM in experiment [1] and 7610 nM in experiment [2].
With `Cc1ccc(-c2ccc(Cl)cc2)cc1C1=C(O)C(C)N(C(C)C)C1=O` (stereo not drawn) [Example 1-19, 3-(4′-chloro-4-methylbiphenyl-3-yl)-4-hydroxy-5-methyl-1-(propan-2-yl)-1,5-dihydro-2H-pyrrol-2-one], the IC50 was determined as 874 nM in experiment [1] and 6960 nM in experiment [2].
The corresponding values for `Cc1ccc(-c2ccc(Cl)cc2)cc1C1=C(O)C2(CCC(C)(C)CC2)NC1=O` [Example 1-20, 3-(4′-chloro-4-methylbiphenyl-3-yl)-4-hydroxy-8,8-dimethyl-1-azaspiro[4.5]dec-3-en-2-one] are 240 nM and 214 nM.
Regarding `Cc1ccc(-c2ccc(Cl)cc2)cc1C1=C(O)C2CSCCN2C1=O` (stereo not drawn) [Example 1-21, 7-(4′-chloro-4-methylbiphenyl-3-yl)-8-hydroxy-1,3,4,8a-tetrahydro-6H-pyrrolo[2,1-c][1,4]thiazin-6-one], the half-maximal inhibitory concentration (IC50) in experiment [1] came to 533 nM; in experiment [2], 15100 nM.
The matching figures for `Cc1ccc(-c2ccc(Cl)cc2)cc1C1=C(O)CN(C2CCCCC2)C1=O` [Example 1-22, 3-(4′-chloro-4-methylbiphenyl-3-yl)-1-cyclohexyl-4-hydroxy-1,5-dihydro-2H-pyrrol-2-one]: 969 nM and 695 nM.
Take `Cc1ccc(-c2ccc(Cl)cc2)c(C)c1C1=C(O)C2(CCC3(CC2)OCC(C)O3)NC1=O` (stereo not drawn) [Example 1-62, 11-(4′-chloro-2,4-dimethylbiphenyl-3-yl)-12-hydroxy-2-methyl-1,4-dioxa-9-azadispiro[4.2.4.2]tetradec-11-en-10-one]: the IC50 in experiment [1] amounted to 690 nM.
For the molecule `COC1CCC2(CC1)NC(=O)C(c1cc(-c3ccc(Cl)c(Cl)c3)ccc1C)=C2O` (stereo not drawn) [Example 1-81, 3-(3′,4′-dichloro-4-methylbiphenyl-3-yl)-4-hydroxy-8-methoxy-1-azaspiro[4.5]dec-3-en-2-one], the IC50 in experiment [2] turned out to be 1410 nM.
Take `Cc1ccc(-c2ccc(Cl)cc2)cc1C1=C(O)C2(CC2)NC1=O` [Example 1-84, 6-(4′-chloro-4-methylbiphenyl-3-yl)-7-hydroxy-4-azaspiro[2.4]hept-6-en-5-one]: the IC50 in experiment [1] was determined as 455 nM.
On to `CCCC1CCC2(CC1)OC(=O)C(c1cc(-c3ccc(Cl)cc3)ccc1C)=C2O` (stereo not drawn) [Example 2-36, 3-(4′-chloro-4-methylbiphenyl-3-yl)-4-hydroxy-8-propyl-1-oxaspiro[4.5]dec-3-en-2-one], for which, in experiment [2], the IC50 stood at 1940 nM.
For `COC1CCC2(CC1)SC(=O)C(c1cc(-c3ccc(Cl)cc3)ccc1C)=C2O` (stereo not drawn) [Example 3-1, 3-(4′-chloro-4-methylbiphenyl-3-yl)-4-hydroxy-8-methoxy-1-thiaspiro[4.5]dec-3-en-2-one], the 50% inhibitory concentration (IC50) in experiment [1] amounted to 853 nM.
Take `Cc1ccc(-c2ccc(Cl)c(Cl)c2)cc1-c1c(O)c2ccc(Cl)cc2[nH]c1=O` [Example 9-7, 7-chloro-3-(3′,4′-dichloro-4-methylbiphenyl-3-yl)-4-hydroxyquinolin-2(1H)-one]: the IC50 in experiment [2] is 8290 nM.
As for `Cc1cc(C)c(-c2c(O)c3ccc(Cl)cc3[nH]c2=O)cc1-c1ccc(Cl)cc1` [Example 9-12, 7-chloro-3-(4′-chloro-4,6-dimethylbiphenyl-3-yl)-4-hydroxyquinolin-2(1H)-one], the IC50 in experiment [1] is 580 nM.
